Three compounds from patent US20190169564A1, “METHODS OF CULTURING MICROORGANISMS IN NON-AXENIC MIXOTROPHIC CONDITIONS” (HELIAE DEVELOPMENT, LLC, priority 2012, published 2019) can be followed below.

In test [1] the test system is Chlorella. Kind of test: Mixotrophic Chlorella culture in bubbled column reactor with pH-auxostat, comparison of organic carbon sources.
The test system of test [2] is E. coli.
Method: 200 ml of bacteria inoculum from a bacteria contaminated photobioreactor was added to 200 ml of BG-11 culture medium. The solution was split in half, with the first solution receiving 6.84 g of glucose and the second solution receiving 5 g of sodium acetate. The pH and optical density of both solutions was taken. The two solutions were each split into three groups of three separate 100 ml volumes, for a control, 10 mMH2O2, and 20 mMH2O2 treatments. Each volume had 2.092 g of MOPS buffer (Sigma Chemical St. Louis, Mo.), and then placed in an incubator set at 27° C., 96 rpm, and 100 μmol/m^2 s of LED light. The volumes were incubated overnight, then brought to a pH of 7.5 using 10 M NaOH and optical density was measured. The treatments of 10 mM H2O2 and 20 mM H2O2 were then added and incubated for 24 h. Optical density and pH were then measured, and methionine was added to one volume of each treatment. Optical density and pH were measured again on the third day and the sixth day before microscope analysis on the sixth day.
The bacteria cultures in glucose and sodium acetate were treated with 0 mM H2O2 (control), 1 mM H2O2, 2.5 mM H2O2, and 5 mM H2O2.
Test [3] relates to contaminating bacteria. Kind of test: Treatment of bacterial contamination in outdoor raceway pond mixotrophic Chlorella culture (flow cytometry). The format is cell-based. The method, then:
Contamination observation (400×, 1000× oil immersion-phase contrast micrograph and cell cytometry with bacterial dying) was performed every 2 days, including a measurement of bacterial contamination by flow cytometry. For bacterial contamination measurement, to each 1 ml sample, 1 μl BacLight™ Green bacterial stain (Invitrogen, Eugene, Oreg., USA) as added, and samples were incubated at room temperature in the dark for 30 to 60 minutes. After incubation, samples were analyzed on a BD FACSAria™ (BD Biosciences, San Jose, Calif., USA) and populations of bacteria and algae were gated based on BacLight™ fluorescence and chlorophyll autofluoresence.
Chlorella sp. SNL333 was grown in a mixotrophic system in the pond raceway systems described above in Example 4. The area of the raceway photobioreactor was 5.6 m^2 with an operating volume of 568 L at a depth of […]. One unit was mixed with a pump (Reactor 1), and the other via a paddle wheel (Reactor 2). Air was delivered to the paddle wheel system via an air stone. Air was delivered to the pumped reactor via a venturi injection system. […] The nitrate level in the modified BG-11 recipe consisted of 400 mg/L, and was determined via the nitrate consumption rates from previous trials. […]
Referring to FIG. 28, the percentage of bacteria to Chlorella in the mixotrophic cultures was quantified using the procedure discussed in the previous examples. […]
For orientation: A flow cytometer gives signals particle by particle.

The test system of test [4] is Chlorella sp. SNL333. As to the kind of experiment: Yield of raceway pond mixotrophic Chlorella culture after contamination treatment. It counts as cell-based.
Method: Chlorella sp. SNL333 was grown in a mixotrophic system in the pond raceway systems described above in Example 4. The area of the raceway photobioreactor was 5.6 m^2 with an operating volume of 568 L at a depth of 15 cm. One unit was mixed with a pump (Reactor 1), and the other via a paddle wheel (Reactor 2). Air was delivered to the paddle wheel system via an air stone. Air was delivered to the pumped reactor via a venturi injection system. Eductors were used in the pumped reactor to increase water velocity and enhance oxygen transfer of the liquid medium. […] The nitrate level in the modified BG-11 recipe consisted of 400 mg/L, and was determined via the nitrate consumption rates from previous trials.
Nitrate levels were adjusted towards the end of the trial to maintain residual nitrate in the system (400 mg/L). Harvests occurred daily throughout the trials. Harvest consisted of 50% of the culture volume daily, with an 80% harvest occurring on day 7. The total trial lasted 12 days for Reactor 1 and 10 days for Reactor 2.
Treatments to control the bacterial population occurred at the time indicated by the vertical dashed line. Reactor 1 received an ozone treatment, and Reactor 2 received an antibiotic treatment. At 190 hours the make-up water for refilling the system was sterilized by chlorination prior to being added to the culture. […]

Consider `CC(=O)O` [Acetic Acid, acetic acid], for which the “Mixotrophic Chlorella Daily Productivity” value in test [1] (Day 1, organic carbon source fed by pH-auxostat, 25° C., 24 hour photoperiod) amounted to 1.04 g/L day; in test [1] (Day 2) it was 1.21 g/L day; in test [1] (Day 3), 1.27 g/L day; in test [1] (Day 4), 1.97 g/L day; in test [1] (Day 5) it was 1.40 g/L day.
For the compound `OO` [H2O2, hydrogen peroxide], the “effect on growth of bacteria cultures” value in test [2] (10 mM and 20 mM H2O2, glucose and acetate mediums, 20 mM greater effect than 10 mM) is “negatively affected the growth of bacteria cultures in both glucose and acetate mediums”. The “inhibitory effect on growth of the bacteria versus H2O2 concentration” value in test [2] (1, 2.5 and 5 mM H2O2, one time treatment, glucose and sodium acetate cultures, growth eventually recovers) is “inhibitory effect on the growth of the bacteria increased”.
In the case of `O=[O+][O-]` [ozone], the “percentage of bacteria to Chlorella after treatment” value in test [3] (after the treatment (ozone 0.10-0.20 mg/L for 17 h; antibiotic mix of Table 4)) is 1.4%. Also, the “percentage of bacteria to Chlorella before treatment” value in test [3] (before the treatment) worked out at 6.5%. Further, the “average yield for the three days after the treatment” value in test [4] is 105 g/m^2 d.
